{"source": "patent US10017463B2", "about": "“Inhibitors of deubiquitinating proteases” (Brandeis University, priority 2014, dated 2018)", "key": {"[1]": {"system": "Bcr-Abl", "assay": "Bcr-Abl immunoblot in K562 cells", "type": "cell-based", "conditions": "for decrease in Bcr-Abl: 30 μM, 4 h", "procedure": "After this time cells were lysed and sonicated in SDS. Whole cell lysates were analyzed for Bcr-Abl and tubulin in triplicate. Panel B is a bar graph showing the quantitation of the blots in Panel A. Panel C is a plot showing differing concentrations of TU50 were added to K562 cells and after 4 h the amount of Bcr-Abl was measured in whole cell lysates."}, "[2]": {"system": "BaF3 parent", "assay": "Growth inhibition assay, BaF3 parent", "type": "cell-based", "conditions": "at higher concentrations than BaF3/p210", "source_text": "(§1) MCL1 is required to sustain growth of many transformed cells and is also regulated by USP9x. […] These findings help to explain why these compounds are toxic to Bcr-Abl independent cancer lines, especially BaF3."}, "[3]": {"target": "purified recombinant USP9x (Homo sapiens, UniProt Q93008)", "sequence (Q93008 whole entry, species assumed)": "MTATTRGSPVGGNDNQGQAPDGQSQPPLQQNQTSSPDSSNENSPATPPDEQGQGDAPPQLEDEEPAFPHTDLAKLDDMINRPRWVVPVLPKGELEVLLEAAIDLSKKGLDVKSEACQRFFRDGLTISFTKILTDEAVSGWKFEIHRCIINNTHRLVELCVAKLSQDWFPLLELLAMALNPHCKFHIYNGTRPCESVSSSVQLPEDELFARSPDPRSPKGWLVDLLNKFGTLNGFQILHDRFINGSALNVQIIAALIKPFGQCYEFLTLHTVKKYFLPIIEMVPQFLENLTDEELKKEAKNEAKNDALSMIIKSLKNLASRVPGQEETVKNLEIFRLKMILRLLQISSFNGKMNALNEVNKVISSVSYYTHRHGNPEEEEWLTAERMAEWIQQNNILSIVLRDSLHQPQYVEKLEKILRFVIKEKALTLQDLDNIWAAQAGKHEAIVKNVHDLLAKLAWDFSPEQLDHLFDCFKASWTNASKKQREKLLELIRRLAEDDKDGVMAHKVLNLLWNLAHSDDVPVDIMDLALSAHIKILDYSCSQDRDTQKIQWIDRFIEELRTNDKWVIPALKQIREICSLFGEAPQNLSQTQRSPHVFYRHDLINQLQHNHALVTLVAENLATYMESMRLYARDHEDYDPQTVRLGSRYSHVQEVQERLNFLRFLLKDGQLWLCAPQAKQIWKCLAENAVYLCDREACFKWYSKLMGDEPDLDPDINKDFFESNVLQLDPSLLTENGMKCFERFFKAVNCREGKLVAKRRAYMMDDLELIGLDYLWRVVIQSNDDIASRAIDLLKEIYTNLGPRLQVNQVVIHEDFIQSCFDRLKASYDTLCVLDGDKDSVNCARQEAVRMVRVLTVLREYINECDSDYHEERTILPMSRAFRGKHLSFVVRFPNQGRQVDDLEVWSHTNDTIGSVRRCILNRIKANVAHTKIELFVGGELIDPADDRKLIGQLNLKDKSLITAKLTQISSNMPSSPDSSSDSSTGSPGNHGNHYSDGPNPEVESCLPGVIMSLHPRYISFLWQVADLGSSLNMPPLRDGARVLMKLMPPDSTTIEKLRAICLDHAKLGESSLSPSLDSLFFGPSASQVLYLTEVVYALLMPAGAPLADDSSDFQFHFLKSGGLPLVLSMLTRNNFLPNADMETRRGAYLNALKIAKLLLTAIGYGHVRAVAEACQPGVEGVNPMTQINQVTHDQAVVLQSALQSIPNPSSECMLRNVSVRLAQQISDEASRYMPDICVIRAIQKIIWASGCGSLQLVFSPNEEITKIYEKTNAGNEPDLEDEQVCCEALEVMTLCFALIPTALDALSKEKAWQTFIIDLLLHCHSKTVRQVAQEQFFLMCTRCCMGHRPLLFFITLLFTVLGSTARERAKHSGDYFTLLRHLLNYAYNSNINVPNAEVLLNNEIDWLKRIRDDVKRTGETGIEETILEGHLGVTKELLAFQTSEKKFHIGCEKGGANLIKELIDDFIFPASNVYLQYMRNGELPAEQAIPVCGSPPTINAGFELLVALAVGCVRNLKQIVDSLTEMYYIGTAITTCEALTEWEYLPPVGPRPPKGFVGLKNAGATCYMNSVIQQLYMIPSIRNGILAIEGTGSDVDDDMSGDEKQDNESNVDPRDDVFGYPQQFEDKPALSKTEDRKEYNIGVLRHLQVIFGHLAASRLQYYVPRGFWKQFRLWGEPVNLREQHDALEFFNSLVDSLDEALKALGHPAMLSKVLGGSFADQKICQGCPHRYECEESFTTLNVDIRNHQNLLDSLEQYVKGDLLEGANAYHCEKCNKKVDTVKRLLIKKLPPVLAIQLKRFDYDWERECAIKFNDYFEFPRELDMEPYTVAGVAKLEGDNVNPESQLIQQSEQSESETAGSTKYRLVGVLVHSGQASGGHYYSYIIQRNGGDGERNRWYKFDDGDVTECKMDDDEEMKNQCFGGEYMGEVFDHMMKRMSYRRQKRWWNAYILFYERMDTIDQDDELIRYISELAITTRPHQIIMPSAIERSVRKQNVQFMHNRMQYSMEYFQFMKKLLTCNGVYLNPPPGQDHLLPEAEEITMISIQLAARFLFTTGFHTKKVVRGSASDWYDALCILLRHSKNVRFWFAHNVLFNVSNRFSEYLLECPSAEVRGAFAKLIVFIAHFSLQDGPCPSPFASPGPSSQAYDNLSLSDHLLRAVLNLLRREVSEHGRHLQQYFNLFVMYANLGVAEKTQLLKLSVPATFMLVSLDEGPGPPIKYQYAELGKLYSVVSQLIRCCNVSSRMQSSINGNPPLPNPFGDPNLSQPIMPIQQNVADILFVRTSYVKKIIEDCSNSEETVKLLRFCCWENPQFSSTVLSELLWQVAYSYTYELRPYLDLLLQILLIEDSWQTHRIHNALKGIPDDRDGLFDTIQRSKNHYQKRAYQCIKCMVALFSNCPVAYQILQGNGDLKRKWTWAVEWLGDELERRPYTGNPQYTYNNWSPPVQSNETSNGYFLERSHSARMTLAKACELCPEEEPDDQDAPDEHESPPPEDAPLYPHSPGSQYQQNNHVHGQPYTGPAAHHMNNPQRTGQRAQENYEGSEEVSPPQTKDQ", "assay": "Purified recombinant USP9x, Cy5-Ub-VME activity profiling", "type": "biochemical", "conditions": "for inhibition of USP9x in presence of USP7CD: at 12.5 μM; for fluorescent signal of USP9x-(Cy5-Ub-VME) complex: preincubation at 50 or 25 μM", "procedure": "Panel A is an image showing that purified recombinant USP9x (7 nM) was treated with the stated compound at 50 μM for 19 min prior to addition of Cy5-Ub-VME for 5 min, then the mixture was resolved by S.D.S-PAGE and analyzed on a typhoon imager. Panel B is an image of an immunoblot showing purified recombinant USP9x (7 nM) and USP7CD (20 nM) were treated with the stated compound at the stated concentration for 19 min prior to addition of Cy5-Ub-VME for 5 min then the mixture was resolved by S.D.S-PAGE and analyzed on a Typhoon imager."}, "[4]": {"system": "DUBs other than USP9x, most notably UCHL5", "assay": "HA-Ubiquitin-Vinylsulfone activity profiling, other DUBs", "type": "biochemical", "conditions": "for inhibition of other DUBs other than USP9x: at 85 μM; for inhibition of other DUBs: below 25 μM", "procedure": "Lysate labeling assay on untransfected cells (1.5 mg/mL lysate lysed using a Dounce homogenizer, 10 strokes, in 75 mM potassium phosphate pH 7.6, 150 mM NaCl, 0.75 mM BME) was run with the stated concentration of inhibitor (or 1% DMSO control) for 30 min. After this time HA-Ub-VS (1.5 μM) was added and incubated for 15 min. After this time reaction mixture (15 μL) was removed and quenched in 2× (final concentration) reducing Laemeli buffer. The reaction mixtures were heated to 37° C. for 10 min prior to analysis by western blot for HA. […] EC50s calculated by this method were in agreement with those found in the HA-blot."}, "[5]": {"system": "B16-F10", "assay": "Proliferation assay, B16-F10", "conditions": "Mus musculus, B16-F10, 72 h, read-out: EC50 growth inhibition B16-F10"}, "[6]": {"target": "T1, recombinant human 20S proteasome (Homo sapiens, UniProt P28074)", "T1 construct": "purchased Boston Biochem", "assay": "20S proteasome assay (Suc-Leu-Leu-Val-Tyr-AMC)", "type": "biochemical", "conditions": "50 μM for the TU compounds (FIG. 6D)", "procedure": "To recombinant human 20S proteasome ([…]) in 50 mM potassium phosphate pH 7.6, 50 mM NaCl, 1 mM DTT was added the compound or DMSO. This mixture was incubated at 25° C. for 30 min after which time substrate (Suc-Leu-Leu-Val-Tyr-AMC, 100 μM or 17 μM) was added and release of AMC was measured as a function of time using a plate reader for 30 min. The steady state rates were calculated and normalized to the DMSO rate. The concentration of inhibitor required to inhibit the enzyme by 50% was calculated using prism."}, "[7]": {"system": "3T3", "assay": "Proliferation assay, 3T3", "conditions": "Mus musculus, NIH3T3, 72 h, read-out: EC50 growth inhibition 3T3"}, "[8]": {"target": "T2, USP9x (Homo sapiens, UniProt Q93008)", "T2 construct": "Lysate labeling assay on untransfected cells; endogenous in cells; host or cells: K562", "T2 sequence (Q93008 whole entry)": "as the sequence (Q93008 whole entry, species assumed) above", "assay": "HA-Ubiquitin-Vinylsulfone activity profiling in K562 lysates", "type": "biochemical", "procedure": "Panel B is an image of an immunoblot showing the titration of TCM23 and TCM28 in K562 lysates. Panel C is a plot showing the quantitation of band corresponding to USP9x in panel B. Panel D is an image of an immunoblot showing the titration of WP1130 in K562 lysates. Panel E is a plot showing the quantification of the efficacy of ITCs for the inhibition of USP9x in K562 lysates (see also Table 2).\n[…] After this time HA-Ub-VS (1.5 μM) was added and incubated for 15 min. After this time reaction mixture (15 μL) was removed and quenched in 2× (final concentration) reducing Laemeli buffer. The reaction mixtures were heated to 37° C. for 10 min prior to analysis by western blot for HA."}, "[9]": {"target": "T3, USP9x (Mus musculus, UniProt P70398)", "T3 construct": "endogenous in cells; host or cells: BaF3", "T3 sequence (P70398 whole entry)": "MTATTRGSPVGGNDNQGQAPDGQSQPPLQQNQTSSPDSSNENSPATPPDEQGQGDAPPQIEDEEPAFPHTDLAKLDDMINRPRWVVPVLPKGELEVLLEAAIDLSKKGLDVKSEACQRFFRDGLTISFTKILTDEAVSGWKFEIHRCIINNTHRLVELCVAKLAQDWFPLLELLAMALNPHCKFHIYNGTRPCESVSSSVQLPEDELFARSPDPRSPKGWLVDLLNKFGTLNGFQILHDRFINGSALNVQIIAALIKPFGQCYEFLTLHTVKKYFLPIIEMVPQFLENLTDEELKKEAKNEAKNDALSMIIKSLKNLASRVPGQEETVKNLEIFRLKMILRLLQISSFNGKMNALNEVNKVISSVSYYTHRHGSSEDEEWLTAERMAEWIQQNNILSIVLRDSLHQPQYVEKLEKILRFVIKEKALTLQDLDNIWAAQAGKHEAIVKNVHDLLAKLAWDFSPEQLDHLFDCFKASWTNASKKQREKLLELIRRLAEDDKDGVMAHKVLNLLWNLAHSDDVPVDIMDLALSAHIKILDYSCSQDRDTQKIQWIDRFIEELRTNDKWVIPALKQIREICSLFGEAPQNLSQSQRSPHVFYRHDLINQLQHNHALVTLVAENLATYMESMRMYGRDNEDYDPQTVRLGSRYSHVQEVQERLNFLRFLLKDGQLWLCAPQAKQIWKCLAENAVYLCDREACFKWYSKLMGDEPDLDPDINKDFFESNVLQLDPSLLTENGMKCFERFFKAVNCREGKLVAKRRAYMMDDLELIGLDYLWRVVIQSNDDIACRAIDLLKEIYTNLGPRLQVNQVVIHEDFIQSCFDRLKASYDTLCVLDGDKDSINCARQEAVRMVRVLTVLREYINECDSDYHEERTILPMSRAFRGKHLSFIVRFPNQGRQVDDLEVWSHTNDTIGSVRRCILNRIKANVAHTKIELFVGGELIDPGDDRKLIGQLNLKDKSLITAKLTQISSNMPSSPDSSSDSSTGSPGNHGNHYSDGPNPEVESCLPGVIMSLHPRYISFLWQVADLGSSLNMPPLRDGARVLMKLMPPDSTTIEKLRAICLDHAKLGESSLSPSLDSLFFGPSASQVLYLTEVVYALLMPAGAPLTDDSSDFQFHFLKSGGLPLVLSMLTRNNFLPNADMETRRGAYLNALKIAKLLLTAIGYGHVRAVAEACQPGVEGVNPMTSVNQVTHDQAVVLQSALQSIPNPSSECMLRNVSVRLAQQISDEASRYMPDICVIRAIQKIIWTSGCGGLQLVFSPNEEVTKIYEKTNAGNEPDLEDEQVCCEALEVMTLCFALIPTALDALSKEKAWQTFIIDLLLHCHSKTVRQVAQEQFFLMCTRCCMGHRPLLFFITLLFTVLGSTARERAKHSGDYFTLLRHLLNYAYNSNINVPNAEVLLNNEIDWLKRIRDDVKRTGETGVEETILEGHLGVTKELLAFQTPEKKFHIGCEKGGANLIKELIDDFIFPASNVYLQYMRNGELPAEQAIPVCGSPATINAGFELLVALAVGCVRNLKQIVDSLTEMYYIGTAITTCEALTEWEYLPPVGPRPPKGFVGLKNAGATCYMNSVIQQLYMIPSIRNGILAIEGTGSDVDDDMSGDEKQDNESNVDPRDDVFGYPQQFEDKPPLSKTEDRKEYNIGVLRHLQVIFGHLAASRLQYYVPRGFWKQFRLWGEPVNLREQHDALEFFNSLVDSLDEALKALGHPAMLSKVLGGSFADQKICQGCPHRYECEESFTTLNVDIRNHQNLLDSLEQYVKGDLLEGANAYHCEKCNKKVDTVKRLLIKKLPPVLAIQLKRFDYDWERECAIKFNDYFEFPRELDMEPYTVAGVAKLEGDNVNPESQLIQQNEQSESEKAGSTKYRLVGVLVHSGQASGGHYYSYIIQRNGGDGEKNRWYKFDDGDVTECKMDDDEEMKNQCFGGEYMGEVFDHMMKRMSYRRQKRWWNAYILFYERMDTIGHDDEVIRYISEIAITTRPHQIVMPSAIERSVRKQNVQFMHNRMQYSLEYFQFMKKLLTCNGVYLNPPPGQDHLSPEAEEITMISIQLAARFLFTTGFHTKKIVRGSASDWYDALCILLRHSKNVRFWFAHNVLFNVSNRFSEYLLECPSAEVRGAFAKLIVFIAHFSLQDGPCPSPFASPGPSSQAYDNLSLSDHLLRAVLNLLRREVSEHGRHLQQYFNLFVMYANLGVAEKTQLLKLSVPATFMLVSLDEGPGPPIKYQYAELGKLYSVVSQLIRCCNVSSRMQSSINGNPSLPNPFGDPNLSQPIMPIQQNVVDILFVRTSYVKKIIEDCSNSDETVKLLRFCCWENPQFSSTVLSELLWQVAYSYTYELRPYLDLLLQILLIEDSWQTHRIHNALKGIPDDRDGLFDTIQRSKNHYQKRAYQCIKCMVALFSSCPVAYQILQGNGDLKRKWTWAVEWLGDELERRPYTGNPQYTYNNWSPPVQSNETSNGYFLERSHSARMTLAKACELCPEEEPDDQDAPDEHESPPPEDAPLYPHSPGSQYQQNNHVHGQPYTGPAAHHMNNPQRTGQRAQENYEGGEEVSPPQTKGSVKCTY", "assay": "Cy5-Ub-VME profiling of BaF3 lysates", "type": "biochemical, murine", "conditions": "BaF3 lysate, approximately 22 bands", "procedure": "Panel A is an image of an immunoblot showing representative scans of lysates treated with compound for 15 min then Cy5-Ub-VME. Panel B is a plot of the bands in each lane using Image J processing and analysis software.\nUsing Image J, the individual lanes from the lysates were plotted as a function of TU50 concentration."}, "[10]": {"system": "MCL1", "assay": "MCL1 immunoblot in BaF3 parent cells", "type": "cell-based", "conditions": "15 and 30 μM, 4 h", "source_text": "Panel A is an image of a immunoblot showing knockdown of MCL-1 by TU46. […] Panel C is a bar graph showing the quantitation of the blots in Panel A and Panel B.\nas §1"}, "[11]": {"system": "K48-linked ubiquitin", "assay": "K48-linked ubiquitin immunoblot in BaF3/p210 cells", "type": "cell-based, murine", "conditions": "4 h, various concentrations", "procedure": "Panel A is an image of an immunoblot showing BaF3/p210 cells were treated with various concentrations of TU46 for 4 h, and then whole cell lysates were blotted for K48-linked ubiquitin and tubulin. Panel B is an immunoblot showing same lysates as in Panel A were blotted for Bcr-Abl.\nThe K48-linked ubiquitin levels were also probed in these lysates. […] The increase in K48-linked ubiquitin coincided with the loss of Bcr-Abl (FIG. 8, Panel B). Since USP9x is known to deubiquitinate K48-linked polyubiquitin chains, it is possible that this increase in K48-linked ubiquitin is due to USP9x inhibition. See Park et al., PNAS 110, 9433-9438 (2013)."}, "[12]": {"system": "leukemic cell lines", "assay": "NCI-60 human tumor cell line screen", "type": "cell-based", "conditions": "48 h treatment", "source_text": "For example, a value of 100 means no growth inhibition and a value of 40 indicates 60% growth inhibition. A value of ‘0’ indicates complete growth inhibition."}, "[13]": {"conditions": "HA-Ub-VS profiling, values in text, read-out: EC50 for USP9x"}, "[14]": {"conditions": "inhibition of USP9x in K562 lysates, data from FIG. 1, read-out: EC50"}}, "note": "Read-outs that look alike come from different tables or passages of the source.", "data": [{"smiles": "CC(C)(C)OC(=O)NCCc1ccc(N=C=S)cc1", "note": "[TU46]", "values": [{"measurement": "decrease in Bcr-Abl", "setting": "[1]", "result": "four-fold decrease"}, {"measurement": "susceptibility of BaF3 parent (growth inhibition)", "setting": "[2]", "result": "susceptible"}, {"measurement": "inhibition of USP9x in presence of USP7CD", "setting": "[3]", "result": "strongly inhibited"}, {"measurement": "fluorescent signal of USP9x-(Cy5-Ub-VME) complex", "setting": "[3]", "result": "oblation of the fluorescent signal"}, {"measurement": "inhibition of other DUBs other than USP9x", "setting": "[4]", "result": "weak inhibition"}, {"measurement": "inhibition of other DUBs", "setting": "[4]", "result": "little inhibition"}, {"measurement": "EC50", "setting": "[5]", "result": "70 ± 20", "unit": "µM"}, {"measurement": "inhibition of pure 20S proteasome", "setting": "[6]", "result": "did not inhibit"}, {"measurement": "EC50", "setting": "[7]", "result": "> 110", "unit": "µM"}, {"measurement": "inhibition of USP9x", "setting": "[8]", "result": "significant inhibition"}, {"measurement": "EC50", "setting": "[8]; [13]", "result": "6 to 12", "unit": "µM"}, {"measurement": "EC50", "setting": "[8]; [14]", "result": 12, "unit": "µM"}, {"measurement": "selectivity for USP9x among Cy5-Ub-VME reactive bands", "setting": "[9]", "result": "selective for USP9x"}, {"measurement": "knockdown of MCL1", "setting": "[10]", "result": "very effective"}, {"measurement": "K48-linked ubiquitin level", "setting": "[11]", "result": "increases K48-linked ubiquitin"}]}, {"smiles": "O=C(NCc1ccc(N=C=S)cc1)OCc1ccccc1", "note": "[TU49]", "values": [{"measurement": "decrease in Bcr-Abl", "setting": "[1]", "result": "four-fold decrease"}, {"measurement": "inhibition of other DUBs other than USP9x", "setting": "[4]", "result": "weak inhibition"}, {"measurement": "inhibition of other DUBs", "setting": "[4]", "result": "little inhibition"}, {"measurement": "EC50", "setting": "[5]", "result": "~30", "unit": "µM"}, {"measurement": "inhibition of pure 20S proteasome", "setting": "[6]", "result": "did not inhibit"}, {"measurement": "EC50", "setting": "[7]", "result": "> 110", "unit": "µM"}, {"measurement": "knockdown of MCL1", "setting": "[10]", "result": "not as efficient"}]}, {"smiles": "CC(C)(C)OC(=O)NCc1cccc(N=C=S)c1", "note": "[TU50]", "values": [{"measurement": "decrease in Bcr-Abl", "setting": "[1]", "result": "four-fold decrease"}, {"measurement": "EC50", "setting": "[1]; K562, 4 h, read-out: EC50 for Bcr-Abl degradation", "result": 12, "unit": "µM"}, {"measurement": "susceptibility of BaF3 parent (growth inhibition)", "setting": "[2]", "result": "susceptible"}, {"measurement": "inhibition of USP9x in presence of USP7CD", "setting": "[3]", "result": "strongly inhibited"}, {"measurement": "fluorescent signal of USP9x-(Cy5-Ub-VME) complex", "setting": "[3]", "result": "oblation of the fluorescent signal"}, {"measurement": "inhibition of other DUBs other than USP9x", "setting": "[4]", "result": "weak inhibition"}, {"measurement": "inhibition of other DUBs", "setting": "[4]", "result": "little inhibition"}, {"measurement": "EC50", "setting": "[5]", "result": "85 ± 10", "unit": "µM"}, {"measurement": "inhibition of pure 20S proteasome", "setting": "[6]", "result": "did not inhibit"}, {"measurement": "lethality in NCI-60 screen", "setting": "[12]", "result": "selective lethality against leukemic cell lines"}, {"measurement": "EC50", "setting": "[7]", "result": "80 ± 10", "unit": "µM"}, {"measurement": "inhibition of USP9x", "setting": "[8]", "result": "significant inhibition"}, {"measurement": "EC50", "setting": "[8]; [13]", "result": "6 to 12", "unit": "µM"}, {"measurement": "EC50", "setting": "[8]; [14]", "result": 9, "unit": "µM"}, {"measurement": "selectivity for USP9x among Cy5-Ub-VME reactive bands", "setting": "[9]", "result": "clearly the most affected"}, {"measurement": "knockdown of MCL1", "setting": "[10]", "result": "very effective"}]}]}
